Test results from patent US12290544B1, “Essential oil of stems and leaves of Chuzhou chrysanthemum and application thereof” (Chuzhou University, priority 2023, dated 2025).
Counter-ions that a name gives are not always drawn.

Legend:
Staphylococcus aureus = experiment: Bacterial inhibition assay (filter paper, bacteriostatic ring); format: cell-based
Experimental: (§1) Cultured Escherichia coli and Staphylococcus aureus are diluted into […] colony forming units per milliliter (CFU/mL) bacterial solution respectively, and evenly spread on a potato dextrose agar (PDA) plate. After standing for 10 min, the filter paper with a diameter of 6 mm made by a punch is spread on the PDA plate, and 6 pieces are evenly placed in each plate. 10 μL of essential oil of stems and leaves of Chuzhou chrysanthemum with a concentration of 5 mg/mL is added with a pipette, and the culture dish is placed in a 37° C. incubator for culture. In the same way, the bacterial inhibition assay of the essential oil of the stems and leaves of Chuzhou chrysanthemum is carried out at the concentrations of 10, 20, 50, and 100 mg/mL. After 16 to 18 h of incubation, a diameter of a bacteriostatic ring (including the piece) is measured with a vernier caliper and recorded. When measuring the bacteriostatic ring, the bacteriostatic ring with uniform and completely sterile growth should be selected, and its diameter should be measured with an outer edge of the bacteriostatic ring as the boundary. Six parallel experiments are performed for each concentration, and the mean and standard deviation are calculated. Ethyl acetate is used as blank control, and streptomycin sulfate and ampicillin are used as positive controls.

Escherichia coli = experiment: as above; format: cell-based
Experimental: as §1

[1] = positive control 50 ppm, read-out: Inhibitory rate
[2] = positive control 500 ppm, read-out: Inhibitory rate

SMILES | Bacteriostatic ring diameter (Staphylococcus aureus; positive control 50 ppm) [C mm] | inhibition at 50 ppm (Staphylococcus aureus; [1]) [%] | Bacteriostatic ring diameter (Escherichia coli; positive control 50 ppm) [B mm] | inhibition at 50 ppm (Escherichia coli; [1]) [%] | Bacteriostatic ring diameter (Staphylococcus aureus; positive control 500 ppm) [B mm] | inhibition at 500 ppm (Staphylococcus aureus; [2]) [%] | Bacteriostatic ring diameter (Escherichia coli; positive control 500 ppm) [C mm] | inhibition at 500 ppm (Escherichia coli; [2]) [%]
CC1(C)S[C@@H]2[C@H](NC(=O)[C@H](N)c3ccccc3)C(=O)N2[C@H]1C(=O)O [Ampicillin] | 16.58 ± 1.17 | 53.2 ± 3.03 | 17.12 ± 0.63 | 54.8 ± 1.66 |  |  |  | 
[H]/N=C(/N)N[C@H]1[C@H](O)[C@@H](O)[C@H](O[C@@H]2O[C@@H](C)[C@](O)(C=O)[C@H]2O[C@@H]2O[C@@H](CO)[C@H](O)[C@@H](O)[C@@H]2NC)[C@@H](N/C(N)=N\[H])[C@@H]1O [Streptomycin sulfate] |  |  |  |  | 18.10 ± 0.48 | 57.3 ± 1.13 | 15.98 ± 0.43 | 51.6 ± 1.3
